Tests used:
[1] = Plasma noribogaine glucuronide pharmacokinetics in healthy volunteers (Example 7); type: in vivo; details: human plasma; for AUC0-216 / AUC0-∞ / Cmax / Tmax / t1/2: mean
Sprague-Dawley rats = test: Fourteen day repeat dose toxicity in rats; type: in vivo, rat
Experimental: This study was conducted to evaluate the toxicity profile of noribogaine-HCl following oral (gavage) administration to the rat for 14 days following Table 2 below:
Male and female Sprague-Dawley rats, 10/sex/group, were administered 0, 25, 50 or 100 mg/kg noribogaine HCl daily by single oral gavage for 14 days. An additional 5 rats/sex/group in the 0 (control) and 100 mg/kg groups were retained for a 28 day recovery period during which no drug was administered. Six rats/sex/group (3 rats/sex controls) were similarly dosed and sampled on study days 1 and 14 for analysis of noribogaine-HCl concentrations in the blood.

[2] = Human pharmacokinetic study, single oral dose, serum levels (Example 6); type: in vivo; details: fasting healthy volunteers, single oral tablet 3, 10, 30 or 60 mg
Experimental: In double blind studies, fasting healthy volunteers (6 per cohort) were treated once orally with a tablet of noribogaine HCl. In escalating cohorts, the volunteers received 3 mg, 10 mg, 30 mg or 60 mg noribogaine.

Sprague-Dawley rat = test: Single dose toxicity in rats; type: in vivo; details: male rats
Experimental: The objective of this study was to determine the toxicity and toxicokinetic profile of noribogaine HCl following a single oral (gavage) administration in the Sprague-Dawley rat. A single dose of 100, 300 and 800 mg/kg (achieved with doses of 400 mg/kg 3 h+/−30 min apart because of the limitations of maximum dose formulation concentration). Five male rats/group were used. […] Hypoactivity, vocalization, chewing movements, changes in respiration/posture, salivation, stimuli sensitivity, tremors, twitches and penile erection occurred prior to death. […] The NOAEL was determined to be 100 mg/kg.

dogs = test: Fourteen day repeat dose toxicity in dogs; type: in vivo, dog
Experimental: The objective of this study was to determine the toxicity profile of noribogaine HCl given following oral (gavage) administration to dogs for 14 days according to the following Table 3 below:
Noribogaine HCl was administered to groups of 4 male and 4 female dogs by single oral gavage daily for 14 days at doses of 0, 0.5, 1.0 and 5.0 mg/kg/day. An additional group of 4 male and 4 female dogs received either the vehicle control or 5.0 mg/kg/day for 14 days and were held for an additional 28 days after cessation of dosing to assess recovery from any potential drug-induced changes. The study was conducted under GLP guidelines and included comprehensive examinations of clinical signs, body weight, clinical pathology parameters, ophthalmologic examinations. ECG recordings and analyses of plasma for bioanalytical measurement of drug levels at appropriate intervals during the study. At the termination of the dosing phase and at the termination of the recovery phase, all dogs were subjected to a complete post-mortem examination including gross examination of major organs and histologic examination of an extensive list of tissues. Additional sections of brain were obtained from cerebrum, cerebellus, brain stem and spinal cord and examined histologically to evaluate potential effects on brain histopathology. In addition, these sections were examined with immunohistochemical stains for GFAP for evidence of gliosis and Calbindin for a more comprehensive examination of cerebellar Purkinje cells.

[3] = after single oral 30 mg noribogaine (n = 6)
[4] = after single oral 60 mg noribogaine (n = 6)

CC[C@H]1C[C@@H]2C[C@H]3c4[nH]c5ccc(OC6OC(C(=O)O)C(O)C(O)C6O)cc5c4CCN(C2)[C@@H]13 (some centres unmarked) [Noribogaine glucuronide, noribogaine glucuronide]
Mean half-life ([1]; 30 mg and 60 mg dose groups): 21 to 23 h | Time of peak concentrations after noribogaine dosing ([1]; 30 mg and 60 mg dose groups): 3 to 4 h | Time by which detected in all subjects ([1]; 30 mg and 60 mg noribogaine dose groups): ≤ 0.75 h | AUC0-216 [1, 3]: 25.7 ng·h/mL | AUC0-∞ [1, 3]: 25.8 ng·h/mL | Cmax [1, 3]: 1.8 ng/mL | Tmax [1, 3]: 3.0 h | t1/2 [1, 3]: 20.6 h | AUC0-216 [1, 4]: 65.0 ng·h/mL | AUC0-∞ [1, 4]: 67.1 ng·h/mL | Cmax [1, 4]: 4.1 ng/mL | Tmax [1, 4]: 3.8 h | t1/2 [1, 4]: 23.1 h | Proportion of noribogaine glucuronide Cmax and AUC relative to noribogaine ([1]; both dose groups (30 mg, 60 mg)): 3-4%

CC[C@@H]1C[C@H]2CC3c4[nH]c5ccc(O)cc5c4CCN(C2)C31.Cl [noribogaine HCl]
Effects on mortality, clinical signs, ophthalmoscopy, hematology, coagulation parameters, clinical chemistry, urinalysis, gross necropsy or histopathology (Sprague-Dawley rats; rats, 25, 50 or 100 mg/kg daily oral gavage for 14 days): no test article-related effects | Brain sections stained for GFAP or Calbindin (Sprague-Dawley rats; rats, 14 days oral gavage): No treatment-related differences in the brain | NOAEL (Sprague-Dawley rats; rats, 14 days oral gavage, highest dose tested): 100 mg/kg | Body weight change (Sprague-Dawley rats; rats, females, high dose 100 mg/kg, 14 days): −2.6% | Food consumption change (Sprague-Dawley rats; rats, males and females, high dose 100 mg/kg, 14 days): −4.7% | Body weight change (Sprague-Dawley rats; rats, males, high dose 100 mg/kg, 14 days): −5.5% | Liver weight (Sprague-Dawley rats; rats, mid- and high dose groups (50, 100 mg/kg), 14 days, not correlated with histopathologic changes, considered incidental): Minor increases in liver weight | Adverse effects [2]: no clinically relevant adverse effects were observed | Linearity of pharmacokinetic parameters [2]: All parameters were linear | NOAEL (Sprague-Dawley rat; single oral gavage): 100 mg/kg | Treatment related signs (Sprague-Dawley rat; single oral gavage 100 mg/kg): did not show any treatment related signs | Rats with hypoactivity, vocalization, salivation, stimuli sensitivity, loss of limb function and lying on the cage floor persisting until Day 2 (Sprague-Dawley rat; single oral gavage 300 mg/kg): 3/5 | Mortality (Sprague-Dawley rat; single oral gavage 800 mg/kg (2 x 400 mg/kg 3 h apart), approximately 2-3 h after second dose): Mortality occurred in all male rats | Lacrimal gland change in recovery group (dogs; dogs, 5 mg/kg/day 14 days, then 28 days off drug): clear evidence of regeneration | Lacrimal gland changes (only target tissue) (dogs; dogs, 5 mg/kg/day, 14 days): slight to moderate atrophy and degeneration of the acinar cells | Adverse effect in clinical observations, body weights, clinical pathological parameters, ophthalmologic examinations, ECG recordings, or gross lesions at necropsy (dogs; dogs, 0.5, 1.0 and 5.0 mg/kg/day oral gavage 14 days, dosing or recovery phase): No evidence of adverse effect | Drug-induced effect in any other tissue including brain (histopathology, immunohistochemistry) (dogs; dogs, 14 days oral gavage): No evidence of drug-induced effect | NOAEL (dogs; dogs, 14 days oral gavage, based on lacrimal gland changes at 5 mg/kg/day): 1 mg/kg/day

— US20160271139A1, “METHOD FOR NON-TOXIC TREATMENT FOR DRUG WITHDRAWAL” (DEMERX, INC., priority 2013, published 2016)
